Assay results as given in patent US9023838B2, “Crystalline form I rosuvastatin zinc salt” (Egis Gyogyszergyar Nyilvanosan Muekoedoe, priority 2009, dated 2015).
Where a name gives a salt, the structure may show the parent alone.

Assays:
[1] = Hygroscopicity (water absorbed); assay type: physicochemical
[2] = Chemical stability on storage at 25° C., 60% relative humidity (impurity concentrations); assay type: physicochemical; conditions: for Lactone impurity / M-2 impurity / Total impurities / Total impurities, number of peaks / Change of concentration of impurity M-2 relative to the initial concentration: 25° C.; for Lactone impurity / M-2 impurity / Total impurities / Total impurities, number of peaks: 60% RH; for Increase in the concentration of rosuvastatin lactone: after one month storage; for Change of concentration of impurity M-2 relative to the initial concentration: one month, 60% relative humidity
Procedure: Chemical stability of amorphous and crystalline Form I rosuvastatin zinc salts (2:1) has been determined by challenging said substances at the storage condition of 25° C., 60% relative humidity.

[3] = listed as amorphous rosuvastatin zinc salt (2:1)

Row | Amount of water absorbed [1, 3] | Lactone impurity ([2]; 1 month) | M-2 impurity ([2]; 1 month) | Total impurities ([2]; 1 month) | Total impurities, number of peaks ([2]; 1 month) | Lactone impurity ([2]; Initial) | M-2 impurity ([2]; Initial) | Total impurities ([2]; Initial) | Total impurities, number of peaks ([2]; Initial) | Increase in the concentration of rosuvastatin lactone [2, 3] | Change of concentration of impurity M-2 relative to the initial concentration ([2]; listed as amorphous form of rosuvastatin zinc salt) | Amount of water absorbed ([1]; listed as crystalline Form I rosuvastatin zinc salt (2:1)) | Total amount of the impurities and number of the individual impurities during storage, compared with the amorphous form ([2]; during storage) | Change of concentration of impurity M-2 relative to the initial concentration ([2]; listed as crystalline Form I substance) | Compound | Increase in the concentration of rosuvastatin lactone ([2]; listed as crystalline Form I of rosuvastatin zinc salt (2:1))
1 | 1.88 % by weight | 0.51% | 0.10% | 0.77% | (6 peaks) | 0.10% | 0.03% | 0.38% | (7 peaks) | five-fold increase | three-fold of the initial concentration |  |  |  | CC(C)c1nc(N(C)S(C)(=O)=O)nc(-c2ccc(F)cc2)c1/C=C/[C@@H](O)C[C@@H](O)CC(=O)O [Amorphous, 7-[4-(4-fluorophenyl)-6-isopropyl-2-(methanesulfonyl-methyl-amino)-pyrimidin-S-yl]-(3R,5S)-dihydroxy-hept-6-enoic acid zinc salt (2:1), reference compound] | 
2 |  | 0.32% | 0.08% | 0.49% | (3 peaks) | 0.13% | 0.07% | 0.28% | (3 peaks) |  |  | 0.24 % by weight | significantly lower | practically unchanged | CC(C)c1nc(N(C)S(C)(=O)=O)nc(-c2ccc(F)cc2)c1/C=C/[C@@H](O)C[C@@H](O)CC(=O)O [Form I, 7-[4-(4-fluorophenyl)-6-isopropyl-2-(methanesulfonyl-methyl-amino)-pyrimidin-5-yl]-(3R,5S)-dihydroxy-hept-6-enoic acid zinc salt (2:1)] | much less prone to form lactone of rosuvastatin
